Experimental data published in publication PMC9913752, “Proof-of-Concept Study of an Alpha-Fetoprotein-Derived Peptide for the Management of Canine Mammary Cancer” (Animals : an Open Access Journal from MDPI, 2023).
Where a SMILES comes first, the peptide text is derived from it. [ ]: non-standard residue; d: D form. Hyp = O=C(O)[C@@H]1C[C@@H](O)CN1

Assay: 8-day repeat-dose study, tolerability (blood chemistry, hematology, adverse events) in tumor-bearing dogs
Format: in vivo, dog
Conditions: for ALP / ALT / AST / Albumin / BUN / Bicarbonate / Bilirubin Conj. / Calcium / Chloride / Cholesterol / Creatine Kinase / GGT / Globulin / Glucose / HCT / HGB / MCH / MCV / Phosphorous / Platelets / Potassium / RBC / Sodium / Total Bilirubin / Total Protein / WBC: Post: 30 min after last injection on day 8, 10 mg s.c. once daily for 8 days
Source text: Previous studies utilizing repeat dosing in mice and rats established safe starting doses for studies using dogs. Female dogs with one or more spontaneously occurring mammary gland tumors greater than approximately 2 cm in maximum diameter, presenting to the Cancer Institute at the Schwarzman Animal Medical Center in New York City, were screened for inclusion in the study. […] All dogs underwent complete clinical staging, consisting of a complete blood count with cell differential, clinical chemistry, and urinalysis. Dogs were administered AFPep 10 mg s.c. once daily for 8 consecutive days. Tumors were biopsied prior to the administration of AFPep and were surgically removed on day 8 after the last injection of AFPep. Blood levels of AFPep were measured before and 30 minutes following its administration on the first day and eighth day of treatment with AFPep. Histopathology was obtained on all mammary gland tumors. Tolerability was assessed using the Veterinary Cooperative Oncology Group Common Terminology Criteria for Adverse Events. Blood chemistry and hematology analyses were performed at IDEXX Laboratories Inc. (Westbrook, ME, USA), using the Sysmex XT and Beckman AU 5800 systems. This study was approved by the Schwarzman Animal Medical Center IACUC and informed consent was obtained in writing from all owners.

## CC(C)[C@@H]1NC(=O)[C@@H]2C[C@@H](O)CN2C(=O)[C@H]([C@@H](C)O)NC(=O)[C@H](CCCCN)NC(=O)[C@H](CCC(=O)O)NC(=O)[C@H](CC(N)=O)NC(=O)CNC(=O)[C@@H]2C[C@@H](O)CN2C(=O)[C@H](CC(N)=O)NC1=O [AFPep] (cyclo(EKT[Hyp]VN[Hyp]GN))
10 mg s.c. once a day for 8 days, 6 dogs with mammary cancer
  AFPep-related adverse events (VCOG-CTCAE): grade-1 injection site reactions in three out of six dogs
30 minutes before first exposure vs 30 minutes after the 8-day administration, 10 mg s.c. once daily, 6 dogs
  complete blood counts with cell differential, clinical chemistry, and urinalysis: unchanged
Dog 1
  ALP: 261 U/L
  ALT: 35 U/L
  AST: 14 U/L
  Albumin: 3 g/dL
  BUN: 27 mg/dL
  Bicarbonate: 21 mmol/L
  Bilirubin Conj.: 0.1 mg/dL
  Calcium: 10 mg/dL
  Chloride: 111 mmol/L
  Cholesterol: 277 mg/dL
  Creatine Kinase: 120 U/L
  GGT: 4 U/L
  Globulin: 3 g/dL
  Glucose: 107 mg/dL
  HCT: 39%
  HGB: 13 g/dL
  MCH: 24 pg
  MCV: 68 fL
  Phosphorous: 4 mg/dL
  Platelets: 438 10^3/µL
  Potassium: 4 mmol/L
  RBC: 6 10^6/µL
  Sodium: 145 mmol/L
  Total Bilirubin: 0.1 mg/dL
  Total Protein: 6 g/dL
  WBC: 18 10^3/µL
Dog 2
  ALP: 115 U/L
  ALT: 14 U/L
  AST: 20 U/L
  Albumin: 4 g/dL
  BUN: 14 mg/dL
  Bicarbonate: 23 mmol/L
  Bilirubin Conj.: 0.1 mg/dL
  Calcium: 11 mg/dL
  Chloride: 108 mmol/L
  Creatine Kinase: 225 U/L
  GGT: 6 U/L
  Globulin: 4 g/dL
  Glucose: 178 mg/dL
  HCT: 46%
  HGB: 17 g/dL
  MCH: 23 pg
  MCV: 65 fL
  Phosphorous: 3 mg/dL
  Platelets: 700 10^3/µL
  Potassium: 5 mmol/L
  RBC: 7 10^6/µL
  Sodium: 146 mmol/L
  Total Bilirubin: 0.1 mg/dL
  Total Protein: 8 g/dL
  WBC: 7 10^3/µL
Dog 3
  ALP: 178 U/L
  ALT: 39 U/L
  AST: 15 U/L
  Albumin: 4 g/dL
  BUN: 14 mg/dL
  Bicarbonate: 23 mmol/L
  Bilirubin Conj.: 0.1 mg/dL
  Calcium: 9 mg/dL
  Chloride: 108 mmol/L
  Cholesterol: 273 mg/dL
  Creatine Kinase: 115 U/L
  GGT: 4 U/L
  Globulin: 3 g/dL
  Glucose: 107 mg/dL
  HCT: 46%
  HGB: 17 g/dL
  MCH: 23 pg
  MCV: 64 fL
  Phosphorous: 4 mg/dL
  Platelets: 558 10^3/µL
  Potassium: 5 mmol/L
  RBC: 7 10^6/µL
  Sodium: 145 mmol/L
  Total Bilirubin: 0.1 mg/dL
  Total Protein: 7 g/dL
  WBC: 6 10^3/µL
Dog 4
  ALP: 148 U/L
  ALT: 60 U/L
  AST: 23 U/L
  Albumin: 3 g/dL
  BUN: 24 mg/dL
  Bicarbonate: 17 mmol/L
  Bilirubin Conj.: 0.1 mg/dL
  Calcium: 10 mg/dL
  Chloride: 114 mmol/L
  Cholesterol: 451 mg/dL
  Creatine Kinase: 169 U/L
  GGT: 6 U/L
  Globulin: 4 g/dL
  Glucose: 92 mg/dL
  HCT: 51%
  HGB: 18 g/dL
  MCH: 23 pg
  MCV: 62 fL
  Phosphorous: 3 mg/dL
  Platelets: 485 10^3/µL
  Potassium: 4.4 mmol/L
  RBC: 8 10^6/µL
  Sodium: 147 mmol/L
  Total Bilirubin: 0.1 mg/dL
  Total Protein: 6 g/dL
  WBC: 13 10^3/µL
Dog 5
  ALP: 15 U/L
  ALT: 29 U/L
  AST: 26 U/L
  Albumin: 4 g/dL
  BUN: 15 mg/dL
  Bicarbonate: 21 mmol/L
  Bilirubin Conj.: 0.1 mg/dL
  Calcium: 10 mg/dL
  Chloride: 110 mmol/L
  Cholesterol: 373 mg/dL
  Creatine Kinase: 138 U/L
  GGT: 18 U/L
  Globulin: 3 g/dL
  Glucose: 88 mg/dL
  HCT: 48%
  HGB: 18 g/dL
  MCH: 25 pg
  MCV: 67 fL
  Phosphorous: 3 mg/dL
  Platelets: 462 10^3/µL
  Potassium: 5 mmol/L
  RBC: 7 10^6/µL
  Sodium: 143 mmol/L
  Total Bilirubin: 0.1 mg/dL
  Total Protein: 7 g/dL
  WBC: 7 10^3/µL
Dog 6
  ALP: 19 U/L
  ALT: 41 U/L
  AST: 18 U/L
  Albumin: 3 g/dL
  BUN: 30 mg/dL
  Bicarbonate: 21 mmol/L
  Bilirubin Conj.: 0.1 mg/dL
  Calcium: 10 mg/dL
  Chloride: 114 mmol/L
  Cholesterol: 198 mg/dL
  Creatine Kinase: 80 U/L
  GGT: 5 U/L
  Globulin: 3 g/dL
  Glucose: 81 mg/dL
  HCT: 43%
  HGB: 15 g/dL
  MCH: 25 pg
  MCV: 74 fL
  Phosphorous: 6 mg/dL
  Platelets: 519 10^3/µL
  Potassium: 4 mmol/L
  RBC: 6 10^6/µL
  Sodium: 143 mmol/L
  Total Bilirubin: 0.1 mg/dL
  Total Protein: 6 g/dL
  WBC: 13 10^3/µL
